Test results: US11229635B2, “Method of treating fibrosis” (BCN Biosciences L.L.C., priority 2016, dated 2022)

Experiments:
Lewis lung (LLC) tumors = experiment: Lewis lung (LLC) artificial metastasis model, lung tumor colonies; format: in vivo, C57Bl/6 and C3H mice
Experimental: One of the major concerns of the Food and Drug Administration for the application of radiation mitigators in RT is that if an agent can protect normal tissue from radiation damage, it may also protect tumor tissues. […] The syngeneic model of artificial metastasis used Lewis lung (LLC) tumors, and since LLC also grow in C3H mice, this could be employed as an allogeneic model. C57B1/6 and C3H mice were injected i.v. with 5×10^4 tumor cells. Subcutaneous drug injections were started on day +3 when the tumors were established in the lung in order to bias the experiment in favor of tumor growth promotion. The dose regimen was arbitrarily assigned to a dose of 20 mg/kg for 5 days. LTI was started on day 4, with 4 Gy doses administered daily for 3 days. This is higher than conventional 2 Gy to compensate for the more rapid growth of murine tumors, but is still well within the range used clinically in hypofractionated therapy.

[1] = test system: radiation dermatitis (erythema, edema); experiment: Draize scoring of dermal radiation sites, dermal dosing 10 mg/mL Day 0 to 6; format: in vivo; conditions: Avg of Days 1-6 and 8
[2] = test system: inflammatory peritoneal macrophages; experiment: Cytokine release by LPS-stimulated inflammatory peritoneal macrophages; format: cell-based; conditions: stimulation with LPS in vitro
Excerpt: Because of the focus on lung fibrosis, we examined the effects of irradiation on macrophages in terms of their ability to modulate fibroblast responses. […] In addition, BCN-512 blocks the ability of irradiated macrophages to stimulate fibroblast proliferation. The ability of BCN-512 to reprogram macrophages is likely highly relevant to its ability to mitigate radiation induced fibrosis and tissue damage

immature myeloid cells = experiment: Immature myeloid cells after WBI and WTLI; format: in vivo
Excerpt: 2. […] They co-express CD11b, Ly6G, and Ly6C, and are required for mitigation by BCN-512, at least after WBI.

[3] = test system: macrophages co-cultured with fibroblasts; experiment: Macrophage-fibroblast co-culture, CFSE proliferation; format: cell-based, mouse
Excerpt: Cell proliferation was used as a sensitive in vitro endpoint because it can also be used to detect cell death. Cells were labeled with the fluorescent dye CF SE, which becomes diluted as the cells proliferate over time. We performed a series of experiments using tumor cell lines to validate the assay and determine the effective ratios of macrophages to target cells (not shown) before performing experiments with normal early-pass murine embryo fibroblasts. To study the effects of BCN-512 and macrophages on fibroblast cell proliferation and death, irradiated (2 or 6 Gy) macrophages and fibroblasts were added at various ratios. Normal mouse fibroblasts were labelled with CF SE and added to the macrophages in 96-well plates. BCN-512 (10 μM) and/or LPS (1 μg/mL) or diluent were then added, and the plates cultured for 1, 2, or 3 days. The purpose of the LPS was to activate the macrophages. BCN-512 was added 1 hour after LPS, which was added immediately after irradiation

[4] = test system: WINT target gene expression; experiment: Wnt target gene expression; conditions: FIG. 23
[5] = Pharmacokinetic profile after sc injection; format: in vivo; conditions: mouse, plasma; C57BL/6 male mice, 10 mg/kg sc, low % deoxycholate formulation
Experimental: FIG. 6A: Pharmacokinetic profile for C57BL/6 male mice receiving a 10 mg/kg sc injection of 512 in a low % deoxycholate formulation.
Because the side effects of Cremophor are undesirable for an MCM candidate, alternative formulations are being tested for further development of 512 for the lung DEARE indication.

[6] = test system: radiation-induced pneumonitis and lung fibrosis; experiment: Thoracic lung irradiation: survival, lung histology, fibrosis; format: in vivo, mouse
Experimental: Our goal is to develop a drug to protect lung from ionizing radiation that is administered subcutaneously and has a favorable risk/benefit profile when administered 24 hours or later after radiation exposure. The drug, BCN 512, originally discovered in the UCLA CMCR, is a novel drug that emerged from high-throughput screening of small molecule libraries, and is now under investigation as a radiation injury mitigator. In our efforts to develop the drug as a lung MCM to treat the Delayed Effects of Acute Radiation Exposure (DEARE), we use the C57BL/6 and C3H mouse models. These models appear to recapitulate human lung fibrosis and pneumonitis, respectively, based upon the distinct sensitivity of the two strains (1, 2).
Radiation fibrosis is a progressive, dose-related, late complication of radiation exposure, with animals and humans surviving for some time with non-lethal damage. […] 512 works by altering the inflammatory infiltrate into the lung.
A: Lung histology of C57BL/6 mice receiving local thoracic radiation (radiation of the lung area) presenting a focal area of increased cellularity and edema on the upper left quadrant. Adjacent to this is increased cellularity (the lacey patterning). The lower right quadrant, emphysema is present with large clear areas indicating where alveoli have collapsed to present large open areas. B. Histopathology of C57BL/6 mouse lung under identical radiation treatment as A, but also treated with 5 mg/kg BCN512 once per day every 24 hours for 5 doses.
In both lobes, significant collapse of alveoli can be seen along with hyper cellularity (dark areas) and pronounced emphysema (large open areas) presenting fibrosis. C, D are separate lobes from the same animal treated identically as above but receiving BCN512 at 5 mg/kg daily for 5 days after 14.5Gy local thoracic radiation.

[7] = test system: canonical Wnt-β catenin signaling; experiment: TCF/LEF luciferase reporter assay in HEK293 cells; format: cell-based; conditions: 28 μM, 24 h, vs vehicle treated cells
Experimental: LiCl (10 mM) treatment was used as positive control for luciferase activity. Luciferase activity was determined after 24 h using a Dual-Luciferase® Reporter Assay System (Promega) as per manufacturer's protocol. HEK293 cells containing a FOPFlash construct were used as a negative control.

## O=[N+]([O-])c1ccc(S(=O)(=O)N2CCN(c3ccccc3)CC2)cc1 [BCN512, 1-[(4-nitrobenezene)sulfonyl]-4-phenyl piperazine]
Lewis lung (LLC) tumors; both strains, vs control
  lung tumor colony size: smaller in size than control
Lewis lung (LLC) tumors; day 14, 20 mg/kg sc for 5 days, both C3H and C57 mouse strains, P<0.05
  decrease of the number of lung tumor colonies: 20%
[1]
  Average Draize score Edema: 0
  Average Draize score Edema Site 2: 0
  Average Draize score Edema Site 3: 0.5714
  Average Draize score Edema Site 4: 0
  Average Draize score Edema Site 5: 0.8571
  Average Draize score Edema Site 6: 0
  Average Draize score Erythema Site 2: 0.4286
  Average Draize score Erythema Site 3: 1.429
  Average Draize score Erythema Site 4: 0.1429
  Average Draize score Erythema Site 5: 1.571
  Average Draize score Erythema Site 6: 0.8571
[2]
  amount of pro-inflammatory cytokines released: decreases
Immature myeloid cells
  number of immature myeloid cells (CD11b, Ly6G, Ly6C): greatly increases
[3]; 10 μM, LPS 1 μg/mL, ratios of 20:1 or 25:1
  toxicity of LPS-treated macrophages to fibroblasts: practically abolished the toxicity associated with LPS treatment
[3]; 6 Gy macrophage irradiation, 3 days
  increase of viable fibroblasts by irradiated macrophages: seemed to neutralize this function
[4]
  Wnt target gene expression: induces the WINT target gene expression
[5]
  Cmax: 132 ng/mL
  Tmax: 2 h
[6]; 14.5Gy local thoracic radiation, 5 mg/kg daily for 5 days, Day 120
  lung fibrosis histology: Absent are the large lesions and pronounced fibrosis
[6]; 18 Gy whole thoracic lung irradiation, 5 mg/Kg sc in Cremophor days 1-5, at 90 days and 160
  overall survival from pneumonitis and lung fibrosis: improved overall survival
[6]; C57BL/6 mice, 14.5Gy local thoracic radiation, 5 mg/kg once per day for 5 doses
  lung histopathology: Lung tissue is normal with no evident emphysema or edema or hyper cellularity or immune infiltrate
[6]; after 14 Gy, acute delivery (FIG. 18)
  development of radiation fibrosis (late disease): mitigates against the development of this late disease
[6]; after LTI, day 150
  inflammatory macrophage content and phenotypic markers in the lung: decrease in inflammatory macrophage content and phenotypic markers
[6]; day 160 after LTI
  mature macrophage cell content in lung: greatly decreased
[7]
  luciferase activity: significantly increased luciferase activity
